What was measured:
[1] = tested on: HL-60; assay: HL-60 cell differentiation relative to 1-alpha, 25-dihydroxyvitamin D3; assay type: functional, Homo sapiens
[2] = species: Rattus norvegicus; assay: Compound was evaluated for rat serum Ca concentration in relative to 1-alpha, 25-dihydroxyvitamin D3; assay type: functional
[3] = tested on: HL-60; assay: Effect on HL-60 cell differentiation; assay type: functional, Homo sapiens
[4] = species: Rattus norvegicus; assay: Compound was evaluated for rat serum Ca concentration; assay type: functional
[5] = molecular target: T1, Vitamin D3 receptor (Bos taurus) (UniProt Q28037); assay: Binding affinity for bovine thymus Vitamin D3 receptor (VDR)
T1 sequence (whole entry): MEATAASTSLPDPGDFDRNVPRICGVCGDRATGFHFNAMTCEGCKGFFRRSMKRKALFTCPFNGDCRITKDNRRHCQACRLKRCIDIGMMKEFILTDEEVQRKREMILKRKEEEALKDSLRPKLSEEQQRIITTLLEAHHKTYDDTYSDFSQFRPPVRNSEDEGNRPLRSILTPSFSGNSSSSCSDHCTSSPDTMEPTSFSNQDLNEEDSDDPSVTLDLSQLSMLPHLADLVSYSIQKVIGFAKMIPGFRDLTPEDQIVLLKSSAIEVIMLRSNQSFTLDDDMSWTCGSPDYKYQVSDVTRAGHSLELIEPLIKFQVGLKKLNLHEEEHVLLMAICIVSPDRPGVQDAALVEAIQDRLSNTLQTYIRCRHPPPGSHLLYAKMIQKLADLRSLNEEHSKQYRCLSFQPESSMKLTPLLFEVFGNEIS

C=C1/C(=C\C=C2/CCC[C@]3(C)[C@@H]([C@H](C)CCCC(C)(C)O)CC[C@@H]23)C[C@@H](O)[C@H](C)[C@H]1O
Relative potency [1]: 1

C=C1/C(=C\C=C2/CCC[C@]3(C)[C@@H]([C@H](C)CCCC(C)(C)O)CC[C@@H]23)C[C@@H](O)[C@H](C)[C@@H]1O
Relative potency [2]: 400
Relative potency [1]: 200

C=C1/C(=C\C=C2/CCC[C@]3(C)[C@@H]([C@H](C)CCCC(C)(C)O)CC[C@@H]23)C[C@H](O)[C@@H](C)[C@@H]1O
Relative potency [1]: 1.5

C=C1/C(=C\C=C2/CCC[C@]3(C)[C@@H]([C@H](C)CCCC(C)(C)O)CC[C@@H]23)C[C@@H](O)[C@@H](C)[C@@H]1O
Relative potency [2]: 2
Relative potency [1]: 10

C=C1/C(=C\C=C2/CCC[C@]3(C)[C@@H]([C@H](C)CCCC(C)(C)O)CC[C@@H]23)C[C@@H](O)C[C@@H]1O [CALCITRIOL]
Relative potency [3]: 100
Relative potency [4]: 100
Relative potency [5]: 100

C=C1/C(=C\C=C2/CCC[C@]3(C)[C@@H]([C@H](C)CCCC(C)(C)O)CC[C@@H]23)C[C@H](O)[C@H](C)[C@H]1O
Relative potency [1]: 0.5

C=C1/C(=C\C=C2/CCC[C@]3(C)[C@@H]([C@H](C)CCCC(C)(C)O)CC[C@@H]23)C[C@H](O)[C@@H](C)[C@H]1O
Relative potency [1]: 3

C=C1/C(=C\C=C2/CCC[C@]3(C)[C@@H]([C@H](C)CCCC(C)(C)O)CC[C@@H]23)C[C@@H](O)[C@@H](C)[C@H]1O
Relative potency [1]: 1.5

— ChEMBL document CHEMBL1130618, “A novel and practical route to A-ring enyne synthon for 1 alpha,25-dihydroxyvitamin D3 analogs: synthesis of A-ring diastereomers of 1 alpha,25-dihydroxyvitamin D2 and 3-methyl-1,25-dihydroxyvitamin D3” (1998)
